Test results: paper PMC4000049, “Genome segment 5 of Antheraea mylitta cytoplasmic polyhedrosis virus encodes a bona fide guanylyltransferase” (Virology Journal, 2014)

System: T1, p65 (AmCPV S5-encoded guanylyltransferase)
T1 construct: entire S5 ORF (nt 266 to 2086; 606 residues, ~65 kDa), His-tagged in pQE-30, E. coli M15, Ni-NTA
Assay: pyrophosphatase-coupled malachite green assay of capping, replot of double-reciprocal plots
Format: biochemical, Antheraea mylitta cypovirus 4
Conditions: co-substrate 5'-diphosphate-ended viral RNA (50 to 150 nM), 5 mM MgCl2, 5 mM DTT, 50 mM Tris-HCl pH 7.5, 25°C; ping-pong; covalent GMP intermediate

Compound `Nc1nc2c(ncn2[C@@H]2O[C@H](COP(=O)(O)OP(=O)(O)OP(=O)(O)O)[C@@H](O)[C@H]2O)c(=O)[nH]1` [GTP] has a Km of 34.2 µM.
